From patent US5739338A, “N-aryl substituted tetrahydroquinolines having retinoid agonist, retinoid antagonist or retinoid inverse agonist type biological activity” (Allergan, priority 1996, dated 1998)

What was measured:
[1] = biological target: T1, RARα (Homo sapiens, UniProt P10276); experiment: Ligand Binding Assay, RARα
T1 sequence (P10276 1-462): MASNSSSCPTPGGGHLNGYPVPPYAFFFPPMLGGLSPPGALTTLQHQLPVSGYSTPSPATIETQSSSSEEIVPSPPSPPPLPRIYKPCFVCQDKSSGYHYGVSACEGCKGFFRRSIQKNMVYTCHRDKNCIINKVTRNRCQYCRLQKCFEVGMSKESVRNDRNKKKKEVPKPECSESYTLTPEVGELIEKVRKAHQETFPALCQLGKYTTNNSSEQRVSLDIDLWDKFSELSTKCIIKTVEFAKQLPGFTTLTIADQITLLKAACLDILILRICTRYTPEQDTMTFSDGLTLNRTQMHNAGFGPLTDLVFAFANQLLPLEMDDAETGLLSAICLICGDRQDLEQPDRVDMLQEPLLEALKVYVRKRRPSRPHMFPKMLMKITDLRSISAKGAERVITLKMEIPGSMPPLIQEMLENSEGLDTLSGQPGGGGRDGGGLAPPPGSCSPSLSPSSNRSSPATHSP
Description: (§1) Other assays described below, measure the ability of the compounds of the present invention to bind to, and/or activate various retinoid receptor subtypes. When in these assays a compound binds to a given receptor subtype and activates the transcription of a reporter gene through that subtype, then the compound is considered an agonist of that receptor subtype. […] In the below descried assays the ability of the compounds to bind to RARα, RARβ, RARγ, RXRα, RXRβ and RXRγ receptors, and the ability or inability of the compounds to activate transcription of a reporter gene through these receptor subtypes can be tested.
(§2) A holoreceptor transactivation assay and a ligand binding assay which measure the antagonist/agonist like activity of the compounds of the invention, or their ability to bind to the several retinoid receptor subtypes, respectively, are described in published PCT Application No. WO WO93/11755 (particularly on pages 30-33 and 37-41) published on Jun. 24, 1993, the specification of which is also incorporated herein by reference. A description of the holoreceptor transactivation assay is also provided below.
(§3) CV1 cells (5,000 cells/well) were transfected with an RAR reporter plasmid MTV-TREp-LUC (50 ng) along with one of the RAR expression vectors (10 ng) in an automated 96-well format by the calcium phosphate procedure of Heyman et al. Cell 68, 397-406, (1992). For RXRα and RXRγ transactivation assays, an RXR-responsive reporter plasmid CRBPII-tk-LUC (50 ng) along with the appropriate RXR expression vectors (10 ng) was used substantially as described by Heyman et al. above, and Allegretto et al. J. Biol. Chem. 268, 26625-26633. For RXRβ transactivation assays, an RXR-responsive reporter plasmid CPRE-tk-LUC ([…]) along with RXRβ expression vector ([…]) was used as described in above. These reporters contain DRI elements from human CRBPII and certain DRI elements from promoter, respectively. (see Mangelsdorf et al. The Retinoids: Biology, Chemistry and Medicine, pp 319-349, Raven Press Ltd., New York and Heyman et al., cited above) (1, 8). A β-galactosidase (50 ng) expression vector was used as an internal control in the transfections to normalize for variations in transfection efficiency. The cells were transfected in triplicate for 6 hours, followed by incubation with retinoids for 36 hours, and the extracts were assayed for luciferase and β-galactosidase activities. The detailed experimental procedure for holoreceptor transactivations has been described in Heyman et al. above, and Allegretto et al. cited above. The results obtained in this assay are expressed in EC50 numbers, as they are also in the chimeric receptor transactivation assay. The Heyman et al. Cell 68, 397-406, Allegretto et al. J. Biol. Chem. 268, 26625-26633, and Mangelsdorf et al. The Retinoids: Biology, Chemistry and Medicine, pp 319-349, Raven Press Ltd., New York, are expressly incorporated herein by reference. The results of ligand binding assay are expressed in Kd numbers. (See Cheng et al. Biochemical Pharmacology Vol. 22 pp 3099-3108, expressly incorporated herein by reference.)

[2] = biological target: T2, RARβ (Homo sapiens, UniProt P10826); experiment: Ligand Binding Assay, RARβ
T2 sequence (P10826 1-448 isoform P10826-2): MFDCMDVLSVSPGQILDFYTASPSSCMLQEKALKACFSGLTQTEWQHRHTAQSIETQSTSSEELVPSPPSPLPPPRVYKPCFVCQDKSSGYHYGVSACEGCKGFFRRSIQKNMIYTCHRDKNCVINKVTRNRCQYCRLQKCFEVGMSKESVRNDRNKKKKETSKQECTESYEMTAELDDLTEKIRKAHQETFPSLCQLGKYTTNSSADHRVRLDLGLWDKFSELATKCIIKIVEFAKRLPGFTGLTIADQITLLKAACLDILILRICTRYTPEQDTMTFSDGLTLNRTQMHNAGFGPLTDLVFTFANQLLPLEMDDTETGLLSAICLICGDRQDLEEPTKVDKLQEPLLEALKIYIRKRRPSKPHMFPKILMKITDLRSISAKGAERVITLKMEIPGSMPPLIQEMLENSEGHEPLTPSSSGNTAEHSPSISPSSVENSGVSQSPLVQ
Description: as §1, §2, §3

[3] = biological target: T3, RARγ (Homo sapiens, UniProt P13631); experiment: Ligand Binding Assay, RARγ
T3 sequence (P13631 1-454): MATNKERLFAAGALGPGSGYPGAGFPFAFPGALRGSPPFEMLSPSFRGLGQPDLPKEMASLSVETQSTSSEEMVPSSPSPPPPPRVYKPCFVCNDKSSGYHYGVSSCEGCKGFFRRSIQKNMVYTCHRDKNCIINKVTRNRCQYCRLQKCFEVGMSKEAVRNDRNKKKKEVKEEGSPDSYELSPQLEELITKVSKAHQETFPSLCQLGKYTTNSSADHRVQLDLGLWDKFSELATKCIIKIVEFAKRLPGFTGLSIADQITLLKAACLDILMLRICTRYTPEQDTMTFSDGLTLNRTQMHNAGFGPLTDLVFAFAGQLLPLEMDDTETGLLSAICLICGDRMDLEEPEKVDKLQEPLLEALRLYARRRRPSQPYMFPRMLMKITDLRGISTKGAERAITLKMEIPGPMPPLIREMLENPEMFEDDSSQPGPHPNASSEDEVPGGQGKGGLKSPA
Description: as §1, §2, §3

[4] = tested on: RARγ-VP-16 chimeric receptor; experiment: Retinoid inverse agonist assay: inhibition of basal luciferase activity in CV-1 cells cotransfected with RARγ-VP-16, ER-RXRα and ERE-tk-Luc; type: cell-based; conditions: RARγ-VP-16, ER-RXRα chimeric receptor, ERE-tk-Luc reporter, read-out: IC50 (inhibition of basal luciferase activity, inverse agonism)
Description: The activity of retinoid inverse agonists can be tested by the procedure of Klein et al. J. Biol. Chem. 271, 22692-22696 (1996) which is expressly incorporated herein by reference.
In this assay, retinoid inverse agonists are able to repress the basal activity of a RARγ-VP-16 chimeric receptor where the constituitively active domain of the herpes simplex virus (HSV) VP-16 is fused to the N-terminus of RARγ. CV-1 cells are cotransfected with RARγ-VP-16, an ER-RXRα chimeric receptor and an ERE-tk-Luc chimeric reporter gene to produce a basal level of luciferase activity, as shown by Nagpal et al. EMBO J. 12, 2349-2360 […] expressly incorporated herein by reference. Retinoid inverse agonists are able to inhibit the basal luciferase activity in these cells in a dose dependent manner and IC50 s measured.

CC1(C)CCN(c2ccccc2)c2cc(C#Cc3ccc(C(=O)O)cc3)ccc21 [Compound 10, 4-(2-(4,4-Dimethyl-1,2,3,4-tetrahydro-N-phenylquinolin-7-yl)ethynyl)benzoicAcid]
Kd [1]: 147 nM | Kd [2]: 18 nM | Kd [3]: 52 nM

Cc1ccc(N2CCC(C)(C)c3ccc(C#Cc4ccc(C(=O)O)cc4)cc32)cc1 [Compound 5, 4-(2-(4,4-Dimethyl-1,2,3,4-tetrahydro-N-(4-methylphenyl)quinolin-7-yl)ethynyl)benzoic Acid]
Kd [1]: 13 nM | Kd [2]: 3 nM | Kd [3]: 9 nM | IC50 [4]: 1 nM

Cc1ccc(N2CCC(C)(C)c3ccc(/C=C/c4ccc(C(=O)O)cc4)cc32)cc1 [Compound 14, (E)-4-(2-(4,4-dimethyl-1,2,3,4-tetrahydro-N-(4-methylphenyl)quinolin-7-yl)ethenyl)benzoic acid]
Kd [1]: 11 nM | Kd [2]: 5 nM | Kd [3]: 15 nM

Cc1ccc(N2CCC(C)(C)c3ccc(C#Cc4ccc(C(=O)O)c(F)c4)cc32)cc1 [Compound 12, 4-(2-(4,4-Dimethyl-1,2,3,4-tetrahydro-N-(4-methylphenyl)quinolin-7-yl)ethynyl)-2-fluorobenzoic Acid]
Kd [1]: 101 nM | Kd [2]: 84 nM | Kd [3]: 530 nM

Cc1ccc(N2C(=O)CC(C)(C)c3ccc(C#Cc4ccc(C(=O)O)cc4)cc32)cc1 [Compound 22, 4-(2-(4,4-Dimethyl-3,4-dihydro-N-(4-methylphenyl)-2(1H)-quinolinon-7-yl)ethynyl)benzoic Acid]
Kd [1]: 59 nM | Kd [2]: 17 nM | Kd [3]: 32 nM

Cc1ccc(N2CCC(C)(C)c3ccc(C(=O)Nc4ccc(C(=O)O)cc4)cc32)cc1 [Compound 25, (4,4-dimethyl-1,2,3,4-tetrahydro-N-(4-methylphenyl)quinolin-7-carboxyl)-4-carboxyanilide]
Kd [1]: 27 nM | Kd [2]: > 1000 nM | Kd [3]: > 1000 nM
